The numbers were not newly measured in patent US20070275075A1, “Ezetimibe compositions” (priority 2006, published 2007), which cites them from elsewhere.

Assay in data set [1]: not given
This is another data set of the same source.

On to `O=C1[C@H](CC[C@H](O)c2ccc(F)cc2)[C@@H](c2ccc(O)cc2)N1c1ccc(F)cc1` [Ezetimibe, 1-(4-fluorophenyl)-3(R)-[3-(4-fluorophenyl)-3(S)-hydroxypropyl]-4(S)-(4-hydroxyphenyl)-2-azetidinone], for which, for the setting “ethanol, methanol, acetone”, the “solubility in ethanol, methanol, and acetone” value is on record as “freely to very soluble”. For the setting “water”, the solubility in water result is “practically insoluble”. Further, the “stability at ambient temperature” value in data set [1] is given as “stable”.
